Reference: ChEMBL document CHEMBL5096184, “Structure activity relationship in β-carboline derived anti-malarial agents” (Eur J Med Chem, 2021)
Values belong to the molecule of their own block, whether it stands above or below them.

What was measured:
Plasmodium falciparum [1] = assay: Antiplasmodial activity against GHA chloroquine sensitive Plasmodium falciparum; format: functional, organism-based
[2] = Cytotoxicity against human MRC5 cells; format: toxicity, cell-based
Plasmodium falciparum [3] = assay: Antimalarial activity against Plasmodium falciparum K1; format: functional, organism-based
Plasmodium falciparum [4] = assay: Antimalarial activity against Plasmodium falciparum W2 (MRA-157) incubated for 72 hrs; format: functional, organism-based
Plasmodium falciparum [5] = assay: Antimalarial activity against multi drug resistant Plasmodium falciparum W2; format: functional, organism-based
Plasmodium berghei = assay: Antiplasmodial activity against Plasmodium berghei assessed as reduction in parasitemia; format: functional, organism-based
Plasmodium falciparum [6] = assay: Antimalarial activity against chloroquine sensitive Plasmodium falciparum K1; format: functional, organism-based
Plasmodium falciparum [7] = assay: Antimalarial activity against chloroquine sensitive Plasmodium falciparum 3D7; format: functional, organism-based
Plasmodium falciparum [8] = assay: Antiplasmodial activity against chloroquine sensitive Plasmodium falciparum W2/Indochina; format: functional, organism-based
Plasmodium falciparum [9] = assay: Antiplasmodial activity against chloroquine sensitive Plasmodium falciparum FCA 20/Ghana; format: functional, organism-based
Plasmodium falciparum [10] = assay: Antiplasmodial activity against chloroquine sensitive Plasmodium falciparum FCB1-R/Colombia; format: functional, organism-based
Plasmodium falciparum [11] = assay: Antimalarial activity against chloroquine-resistant Plasmodium falciparum; format: functional, organism-based
[12] = Plasmodium falciparum, W2/Indochina
[13] = Plasmodium falciparum, FCA 20/Ghana

IC50 (Plasmodium falciparum [1]): 4000 nM
SMILES: NCCCC[C@H]1NC(=O)[C@H]2Cc3c([nH]c4ccccc34)C(c3ccc4c(c3)OCO4)N2C1=O (some centres undefined)
IC50 [2]: > 64000 nM

SMILES: Clc1ccc2[nH]c3c(N4CCC(N5CCCCC5)CC4)nccc3c2c1
IC50 (Plasmodium falciparum [3]): 10200 nM

SMILES: N#Cc1ccc(C2NCCc3c2[nH]c2ccccc32)cc1 (centres undefined)
IC50 (Plasmodium falciparum [4]): 1100 nM

IC50 (Plasmodium falciparum [3]): 620 nM
SMILES: CN1CCN(c2nccc3c2[nH]c2ccccc23)CC1

SMILES: Cc1ccc(C2NCCc3c2[nH]c2ccccc32)c(C)c1 (centres undefined)
IC50 (Plasmodium falciparum [5]): 25300 nM

IC50 (Plasmodium berghei): < 5 µg/mL
SMILES: COC(=O)[C@@H]1Cc2c([nH]c3ccccc23)[C@@H](c2cccnc2)N1

SMILES: C=C(CC1OC(C)=Cn2c3ccccc3c3cc(C(=O)OC)cc1c32)C(=O)OC (centres undefined)
IC50 (Plasmodium falciparum [6]): 720 nM | IC50 (Plasmodium falciparum [7]): 570 nM

SMILES: COC(=O)c1cc2c3c(c1)c1cc(Cl)ccc1n3C=C(C)OC2
IC50 (Plasmodium falciparum [6]): > 2450 nM | IC50 (Plasmodium falciparum [7]): > 1780 nM

SMILES: Cc1cccc(C2NCCc3c2[nH]c2ccccc32)c1 (centres undefined)
IC50 (Plasmodium falciparum [5]): 38100 nM

SMILES: C=C[C@H]1CN2CCc3c([nH]c4ccc(O)cc34)[C@@H]2C[C@@H]1CC1c2[nH]c3ccccc3c2CCN1C (some centres undefined)
IC50 (Plasmodium falciparum [8]; [12]): 160 nM | IC50 (Plasmodium falciparum [9]; [13]): 480 nM

IC50 (Plasmodium falciparum [3]): 240 nM
SMILES: CCN(CC)CCC(C)Nc1nccc2c1[nH]c1ccc(Cl)cc12 (centres undefined)

IC50 (Plasmodium falciparum [4]): 25100 nM
SMILES: COc1cccc(C2NCCc3c2[nH]c2ccccc32)c1 (centres undefined)

IC50 (Plasmodium berghei): < 5 µg/mL
SMILES: COC(=O)[C@@H]1Cc2c([nH]c3ccccc23)[C@H](c2cccnc2)N1

SMILES: CC1NCCc2c1[nH]c1ccc(Br)cc21 (centres undefined)
IC50 (Plasmodium falciparum [4]): 5700 nM

SMILES: Cc1ccccc1C1NCCc2c1[nH]c1ccccc21 (centres undefined)
IC50 (Plasmodium falciparum [5]): 15200 nM

IC50 (Plasmodium falciparum [3]): 3400 nM
SMILES: OC1CCCN(c2nccc3c2[nH]c2ccccc23)C1 (centres undefined)

IC50 (Plasmodium berghei): < 5 µg/mL
SMILES: CCCCCC[C@H]1N[C@H](C(=O)OC)Cc2c1[nH]c1ccccc21

IC50 (Plasmodium falciparum [3]): 2400 nM
SMILES: OCCNc1nccc2c1[nH]c1ccccc12

SMILES: O=[N+]([O-])c1ccc(C2NCCc3c2[nH]c2ccccc32)cc1 (centres undefined)
IC50 (Plasmodium falciparum [4]): 1700 nM

IC50 (Plasmodium falciparum [4]): 13600 nM
SMILES: O=[N+]([O-])c1cccc(C2NCCc3c2[nH]c2ccccc32)c1 (centres undefined)

SMILES: CCN(CC)CCCNc1nccc2c1[nH]c1ccc(Cl)cc12
IC50 (Plasmodium falciparum [3]): 1080 nM

SMILES: c1ccc(C2NCCc3c2[nH]c2ccccc32)cc1 (centres undefined)
IC50 (Plasmodium falciparum [5]): 8100 nM

SMILES: COC(=O)c1cc2c3c(c1)c1cc(Br)ccc1n3C=C(C)OC2
IC50 (Plasmodium falciparum [7]): > 5000 nM

IC50 (Plasmodium berghei): < 5 µg/mL
SMILES: COC(=O)[C@@H]1Cc2c([nH]c3ccccc23)[C@@H](c2cccs2)N1

SMILES: Cc1ccc(C)c(C2NCCc3c2[nH]c2ccccc32)c1 (centres undefined)
IC50 (Plasmodium falciparum [5]): 28900 nM

SMILES: CC1C2=CN3CCc4c([nH]c5ccc(O)cc45)C3CC2CC2C3C(CCN2C)c2ccccc2N13 (stereo in doubt; 33)
IC50 (Plasmodium falciparum [8]): 12700 nM | IC50 (Plasmodium falciparum [9]): 9550 nM

SMILES: CC[C@H]1CN2CCc3c([nH]c4ccccc34)[C@@H]2C[C@@H]1C[C@H]1NCCc2c1[nH]c1ccccc21
IC50 (Plasmodium falciparum [8]; [12]): 492 nM | IC50 (Plasmodium falciparum [9]; [13]): 118 nM

SMILES: CC1C2=CN3CCc4c([nH]c5ccc(O)cc45)C3CC2CC2C3C(CCN2C)c2ccccc2N13 (stereo in doubt; 34)
IC50 (Plasmodium falciparum [10]): 2000 nM | IC50 (Plasmodium falciparum [8]): 4570 nM | IC50 (Plasmodium falciparum [9]; [13]): 12600 nM

SMILES: COC(=O)c1cc2c([nH]c3ccccc32)c(-c2c[nH]c3ccccc23)n1
IC50 (Plasmodium falciparum [11]): > 29000 nM

SMILES: COC(=O)c1cc2c3c(c1)c1cc(Cl)ccc1n3C=C(C)OC2C/C=C(\C)CCC=C(C)C (centres undefined)
IC50 (Plasmodium falciparum [6]): > 5000 nM | IC50 (Plasmodium falciparum [7]): 1550 nM

IC50 (Plasmodium falciparum [3]): 640 nM
SMILES: CCN(CC)CCCNc1nccc2c1[nH]c1ccccc12

SMILES: Clc1ccc2[nH]c3c(N4CCC(N5CCCC5)CC4)nccc3c2c1
IC50 (Plasmodium falciparum [3]): 930 nM

SMILES: CCN(CC)C1CCN(c2nccc3c2[nH]c2ccc(Cl)cc23)CC1
IC50 (Plasmodium falciparum [3]): 1600 nM

SMILES: C=CCC1OC(C)=Cn2c3ccc(Cl)cc3c3cc(C(=O)OC)cc1c32 (centres undefined)
IC50 (Plasmodium falciparum [6]): > 5000 nM | IC50 (Plasmodium falciparum [7]): > 5000 nM

SMILES: C/C=C/CC1OC(C)=Cn2c3ccccc3c3cc(C(=O)OC)cc1c32 (centres undefined)
IC50 (Plasmodium falciparum [7]): > 5000 nM

IC50 (Plasmodium falciparum [1]): > 64000 nM
SMILES: O=C1N[C@@H](COCc2ccccc2)C(=O)N2C(c3ccc4c(c3)OCO4)c3[nH]c4ccccc4c3C[C@H]12 (some centres undefined)
IC50 [2]: > 64000 nM

SMILES: Brc1ccc(C2NCCc3c2[nH]c2ccccc32)cc1 (centres undefined)
IC50 (Plasmodium falciparum [4]): 6900 nM

SMILES: C/C=C1\CN2CCc3c([nH]c4ccccc34)[C@@H]2C[C@@H]1CC1=NCCc2c1[nH]c1ccccc21
IC50 (Plasmodium falciparum [10]): < 2000 nM | IC50 (Plasmodium falciparum [8]; [12]): 32 nM | IC50 (Plasmodium falciparum [9]; [13]): 857 nM

IC50 (Plasmodium falciparum [1]): 60000 nM
SMILES: CC(C)(C)OC(=O)CC[C@@H]1NC(=O)[C@H]2Cc3c([nH]c4ccccc34)C(c3ccc4c(c3)OCO4)N2C1=O (some centres undefined)
IC50 [2]: > 64000 nM

SMILES: COC(=O)c1cc2c3c(c1)c1ccccc1n3C=C(C)OC2
IC50 (Plasmodium falciparum [7]): > 5000 nM

SMILES: C=C[C@H]1CN2CCc3c([nH]c4c([C@@H]5CCCN5C)c(O)ccc34)[C@@H]2C[C@@H]1CC1c2[nH]c3ccccc3c2CCN1C (some centres undefined)
IC50 (Plasmodium falciparum [10]): < 500 nM | IC50 (Plasmodium falciparum [8]; [12]): 152 nM | IC50 (Plasmodium falciparum [9]; [13]): 120 nM

IC50 (Plasmodium falciparum [3]): 360 nM
SMILES: CCN(CC)CCCNc1nccc2c1[nH]c1ccc(F)cc12

IC50 (Plasmodium falciparum [3]): 450 nM
SMILES: CN(C)CCCNc1nccc2c1[nH]c1ccccc12

SMILES: C=C[C@H]1CN2CCc3c([nH]c4ccccc34)[C@@H]2C[C@@H]1CC1c2[nH]c3ccccc3c2CCN1C (some centres undefined)
IC50 (Plasmodium falciparum [10]): 2000 nM | IC50 (Plasmodium falciparum [8]; [12]): 2360 nM | IC50 (Plasmodium falciparum [9]; [13]): 2500 nM

SMILES: C=C(C)CC1OC(C)=Cn2c3ccccc3c3cc(C(=O)OC)cc1c32 (centres undefined)
IC50 (Plasmodium falciparum [7]): > 5000 nM

SMILES: Cn1c2c(c3ccccc31)C[C@@H]1C(=O)N([C@@H]3CCN(Cc4ccccc4)C3)CC(=O)N1[C@@H]2c1ccc2c(c1)OCO2
IC50 [2]: > 64000 nM
